Values of other authors as cited in US20090136558A1, “Anti-Restenosis Coatings and Uses Thereof” (VASOTECH, INC., priority 2004, published 2009).

Details: through specific binding to individual binding proteins

**Q.** With CO[C@H]1C[C@@H]2CC[C@@H](C)[C@@](O)(O2)C(=O)C(=O)N2CCCC[C@H]2C(=O)O[C@H]([C@H](C)C[C@@H]2CC[C@@H](O)[C@H](OC)C2)CC(=O)[C@H](C)/C=C(\C)[C@@H](O)[C@@H](OC)C(=O)[C@H](C)C[C@H](C)/C=C/C=C/C=C/1C [sirolimus, Sirolimus] as the molecule, how does the “retention in blood vessel wall after releasing from stent” value read?
**A.** The value was “retained well in blood vessel wall for up to three days”.
